Assay results as given in patent publication US5792784A, “Coupling product obtained from histamine and an amino acid” (Babizhayev; Marc, priority 1993, dated 1998).

Assays:
[1] = "Peroxidase" type activity on liposome model: reduction of phosphatidylcholine hydroperoxides (PC-OOH); assay type: biochemical
Method: The "peroxidase" type activity also has been evaluated on a "liposome" model. The phosphatidylcholine hydroperoxides (PC-OOH) are prepared according to a similar procedure to the one already described for the linoleic acid monoperoxide.
The peroxide species reduction is followed by dosing the remaining peroxides according to the method laid down by Hicks M and Gebicki J. M.--Anal. Biochem, vol 99, (1979), p. 249-253.

[2] = test system: cutaneous connective tissue; assay: Repairing of the cutaneous connective tissue after incision in rat (histology); assay type: in vivo, Wistar rats
Method: This experiment has been carried out on a batch of 12 Wistar rats. An incision of a length of 12 mm involving in depth epiderm and derm as a whole was performed. At the end of the healing, the rats are then treated by topical applications of β-alanyl-histadine for three weeks. At the same time, a reference batch of 12 rats have been treated with placebo for the same lasting time of experiment.

[3] = Inhibition of linoleic acid peroxidation (Fe/ascorbic acid; TBA/MDA); assay type: biochemical; conditions: 25 mM (mixture: 25 mM each), linoleic acid 0.25 mg/ml
Method: oxidation substrate: linoleic acid (0.25 mg/ml), free radicals generating system: Fe/ascorbic acid detection: thiobarbituric acid (TBA)/malondialdehyde (MDA)

lens = assay: Cataract patients: lens opacity (slit lamp, retroillumination, image analysis); assay type: in vivo; conditions: for decrease of the opacity: 24 months, groups 2 and 3; for integration peak of opacity distribution: posterior subcapsular cataract
Excerpt: The study has been designed for a prospective evaluation of the modifications of the lens opacity in patients effected by cataract. All the patients have undergone an initial ophtalmic examination. It involved the making of the medical historical record of the patient, a measurement of the visual acuity at a maximum correction, direct or indirect ophtalmoscopies, an evaluation of the opacities with the slit lamp, a clinical grading of the lens after maximal mydriasis, a classification according to the cataract type, and lens pictures by retroillumination. Moreover, samples of blood have been taken at the beginning, then in follow-up for chemical analysis.
Changes of the lens have been examined in all the patients by using the microscope with the Zeiss slit lamp. The photographic observations obtained with this technique included a base line examination, intermediate studies and a final examination at the end of the treatment period.
In using the technique of the slit lamp, the lens has been pictured layer by layer in order to visualize all the anterior segment of the eye, from the cornea to the posterior capsule.
With this technique, Red reflex examination has been carried out, according to a conventional retroillumination. Then lens modifications were graded according to the anatomical location and the importance of the modification.
Cortical opacities have been graded and pictured in retroillumination. Afterwards this film has been submitted to a measurement of linear densitometry with a microdensitometer. The opacity values have been reported in relative value using a standard scale of opacification. The cortical opacities measurement have been rated also taking into account of the total surface exposed to radiation. The posterior subcapsular opacities have been measured in retroillumination by the longest height, from the lower part to the top and by the greatest width, using the scale of the slit lamp.
Pictures of the lens also were taken on nuclear and cortical opacities and later on they were graded.
The different negatives taken with the slit lamp have been analyzed with a "plumbicon tube". This equipment allows one to transpose with a large accuracy a measurement of intensity of light into an electric signal which is integrated and stored in an analysis system of computerized image. With the help of a specific program, the lens image in that manner "digitized" could be reproduced as a graph in two or three dimensions.
A detailed description of this method of image processing is given in : Babizhayev M. A. Zhukotskii A. V. and Sologub A. A. (1992), "Image analysis of the lens opacities induced in developing chick embryo by glucocorticoid", Exp. Eye Res. Vol. 55, p.521-537.
The represented histograms show in a concrete example the interest of such evaluation method. A case of posterior subcapsular cataract is studied before and after 21/2 months of treatment following topical applications with eye drops containing 1% of β-alanyl-histamine. The histograms give the quantitative distribution of opacities with an integration peak of 58.44±18.14 before treatment, and of 44.95±8.77 after 21/2 months of treatment.
Following the protocol described above, we determine the values of the optic density of the lens according to its opacity as well as the visual acuity, and the whole for 24 months. Considering these two parameters, we obtain tables giving results concerning the modification of the visual acuity at the end of 24 months in Tables 1 and 2, and the results concerning the modification of the visual opacity at the end of 24 months in Tables 3 and 4.

[4] = after 21/2 months, eye drops 1%

Question: With `NCCC(=O)NCCc1c[nH]cn1` [β-alanyl-histamine] as the molecule, how does the “number of moles of PC-OOH reduced/initial number of moles of PC/hour” value ([1]; 10 mM) read?
Answer: 0.77 × 10^-3 moles of PC-OOH reduced/initia

Question: And the “number of moles of PC-OOH reduced/initial number of moles of PC/hour” value ([1]; 25 mM)?
Answer: 1.56 × 10^-3 moles of PC-OOH reduced/initia

Question: What about the “density and aspect of the constituents of the connective tissue” value ([2]; capillary layer versus deep layer) of the same molecule?
Answer: obviously the same in the capillary layer and in the deep layer

Question: And the “thin elastic or reticulin fibres” value ([2]; dermic superficial layers)?
Answer: generally more numerous in the dermic superficial layers

Question: And the fundamental substance ([2]; toluidine blue colouring)?
Answer: more abundant than normal

Question: And the horny-layers ([2]; topical, after 3 weeks)?
Answer: identical to the ones of the surrounding normal epiderm

Question: What about the restoration of epiderm ([2]; topical, after 3 weeks) of the same molecule?
Answer: The epiderm is well restored

Question: What about the visibility of scar ([2]; topical, after 3 weeks) of the same molecule?
Answer: the scar is slightly or even not visible on the skin surface

Question: And the “% inhibition” value [3]?
Answer: 47%

Question: What about the “MDA per mg of linoleic acid” value ([3]; control 7.95) of the same molecule?
Answer: 4.25 mol MDA per mg of linoleic aci

Question: What about the “decrease of the opacity” value (lens; modification 5 @ 9%) of the same molecule?
Answer: 3

Question: What about the “decrease of the opacity” value (lens; modification 10 @ 14%) of the same molecule?
Answer: 5

Question: What about the “decrease of the opacity” value (lens; modification 15 @ 19%) of the same molecule?
Answer: 5

Question: And the “decrease of the opacity” value (lens; modification 20 @ 24%)?
Answer: 1

Question: What about the “decrease of the opacity” value (lens; modification +25%) of the same molecule?
Answer: 5

Question: And the “decrease of the opacity” value (lens; total)?
Answer: 19

Question: And the “opacities in the posterior subcapsular region of the lens” value (lens; [4])?
Answer: partial regression of the opacities

Question: And the “integration peak of opacity distribution” value (lens; [4])?
Answer: 44.95±8.77

Question: What about the “integration peak of opacity distribution” value (lens; before treatment) of the same molecule?
Answer: 58.44±18.14
